Source: US20180282279A1, “Pantothenamide Analogues” (Radboud Universitair Medisch Centrum, priority 2014, published 2018)

Legend:
[1] = system: P. falciparum asexual blood stage parasites; assay: Asexual replication assay in competition with pantothenate; format: cell-based, Plasmodium falciparum; settings: log dose ratio −1 vs log pantothenate concentration
Procedure: FIG. 3: Competition between pantothenic acid and inverted-amide pantothenamide. Asexual replication assays were performed in combinations of pantothenic acid (PA) and CXP18.6-017 (A), CXP18.6-026 (B) and CXP18.6-052 (C). The relative number of parasites was determined by a Sybrgreen DNA detection method. Data are expressed relative to the MAX (0.1% DMSO) and MIN (10 μM DHA) controls. Error bars indicate standard deviations from two independent observations. D) S child regression analysis of combinations of CXP18.6-052 and pantothenic acid.
To study their interaction with pantothenate-dependent pathways, asexual replication assays were performed with CXP18.6-017, CXP18.6-026 and CXP18.6-052 in the presence of increasing amounts pantothenate. When combining a pantothenamide analogue and pantothenate in the same well the conditions were otherwise similar to the single compound assays described above, however the final DMSO concentration was 0.2%, which was also adjusted for the positive and negative controls.

[2] = system: Plasmodium falciparum NF54 parasites; assay: P. falciparum asexual blood stage replication assay (SYBR Green); format: cell-based; settings: NF54, 10% human serum, 72 incubation
Procedure: Compounds were tested on their ability to inhibit replication of the human malaria parasite Plasmodium falciparum. To this end, Plasmodium falciparum NF54 parasites were cultured in RPMI1640 medium supplemented with 367 μM hypoxanthine, 25 mM HEPES, 25 mM sodiumbicarbonate and 10% human type A serum in an automated large-scale culture system as described before (Transactions of the Royal Society of Tropical Medicine and Hygiene, 1982. 76: p. 812-818). Compounds were diluted in DMSO and subsequently in culture medium to reach a DMSO concentration of 0.2%. 50 μl of diluted compound was transferred to a black 96 well plate. A culture of P. falciparum strain NF54 malaria parasites was diluted to a parasitaemia of 0.5% and a hematocrit of 3%. 50 μl of this diluted culture was added to each well in the 96 well plate._The outermost wells of the plate were filled with sterile water to prevent evaporation. The established antimalarial dihydroartemisinin (DHA) in DMSO acted as a positive control (MIN signal), and 0.1% DMSO acted as a negative control (MAX signal). The plates were incubated for 72 at 37° C., 3% 02, 5% CO2, 93% N2. Changes in parasite replication relative to the controls were monitored using the DNA-marker SYBR Green as described previously (Antimicrob Agents Chemother 48:1803-6). Data were analyzed by logistic regression using the formula: Y=Bottom+(Top-Bottom)/(1+10̂((Log IC50−X)*HillSlope)) and a least squares method to find the best fit.
Using similar methods, IC50 values were determined for a variety of inverted pantothenamides, as listed in table 1 (see section: ‘Detailed description of the invention’)

[3] = system: P. falciparum gametocytes; assay: microbe, parasite or virus in culture; format: cell-based, Plasmodium falciparum; settings: for effect on gametocyte viability (pLDH activity): FIG. 4A; for IC50: 72 hour incubation, read-out: Gametocyte viability (pLDH) IC50; for extent of inhibition of gametocyte viability: compared with reference compound DHA
Procedure: Compounds were tested for their ability to affect the viability of gametocytes, the sexually committed blood stages of P. falciparum that underlie transmission to the mosquito vector. To this end, two different assays were performed. The first assay monitored pLDH activity as a measure of viability of gametocytes (J Antimicrob Chemother. 2013 September; 68(9):2048-58). The second assay monitored the ability of gametocytes to form a female gamete by detection of the gamete-specific marker Pfs25. Plasmodium falciparum NF54 parasites were cultured in RPMI1640 medium supplemented with 367 μM hypoxanthine, 25 mM HEPES, 25 mM sodiumbicarbonate and 10% human type A serum in an automated large-scale culture system as described before (Transactions of the Royal Society of Tropical Medicine and Hygiene, 1982. 76: p. 812-818). Cultures were treated with 50 mM N-acetyl-D-glucosamine from day 4 till day 9 to kill asexual parasites. On day 11 gametocytes were isolated by discontinuous 63% Percoll gradient centrifugation. Compounds were diluted in DMSO and subsequently in culture medium to reach a DMSO concentration of 0.2%. To measure the effect of compounds of pLDH activity, gametocytes were seeded at a density of 3.5×10^4 gametocytes per well in a black 384 well plate in 30 μl of culture medium, and 30 μl of diluted compound was added. Following a 72 hour incubation at 37° C., 98% humidity, 93% N2, 4% CO2 and 3% O2, gametocyte viability was measured by a modified plasmodium lactate dehydrogenase assay by using resazurin as a substrate as previously described (Nature, 2013. 504(7479): p. 248-53). Assays were performed in quadruplicate (two different plates with two different gametocyte batches) and all plates included controls MIN (1 μM DHA), MAX (0.1% DMSO) and a serial dilution of reference compound dihydroartemisinin (DHA).

[4] = system: P. falciparum gametocytes; assay: Gametocyte female gametogenesis capacity assay (Pfs25 AlphaLISA); format: cell-based; settings: Plasmodium falciparum, 72 hours incubation
Procedure: To monitor compound effects on the ability of a gametocyte to form a female gamete, day 11 (stage IV) gametocytes were seeded at a density of 4×10^5 gametocytes per well in a V-bottom plate in 50 μl culture medium. 50 μl of diluted compound was added to the gametocytes (0.1% DMSO final concentration) and plates were incubated for 72 hours at 37° C., 98% humidity, 93% N2, 4% CO2 and 3% O2. Subsequently, gametogenesis was induced by adding xanthurenic acid to a final concentration of 40 μM and plates were incubated for 16 hours at 20° C. Gametes were detected in a homogeneous proximity immunoassay on basis of Pfs25 expression by use of AlphaLISA technology (Perkin Elmer). All steps were performed at 20° C. Gametes were washed twice with PBS, lysed for 15 min in 10 μl 10 mM Tris pH 8.0/1% laurylsarcosyl/1 mM phenylmethanesulfonyl fluoride and combined with 10 μl 5 nM biotinylated mouse anti-Pfs25 monoclonal antibody 32F6244 in a white 384 well optiplate (Perkin Elmer). After 1 hour incubation 15 μl of 33 μg/ml acceptorbeads coated with mouse anti-Pfs25 monoclonal antibody 32F81 were added. After 1 hour incubation, 15 μl 33 μg/ml Streptavidin-conjugated donorbeads were added. Finally, after 1 hour incubation luminescence signals were monitored at the 615 nm emission wavelength following excitation at 680 nm using a fluorometer (Biotek Synergy 2). All compounds were tested in duplicate (24 hr) or triplicate (1 and 72 hr). Controls included MIN (0.1 μM epoxomicin) and MAX (0.1% DMSO). Data were analyzed by logistic regression using the formula: Y=Bottom+(Top−Bottom)/(1+10̂((Log IC50−X)*HillSlope)) and a least squares method to find the best fit.

[5] = FIG. 4B, read-out: female gametogenesis capacity of gametocytes IC50
[6] = Table 3, read-out: Gametocyte gametogenesis capacity (Pfs25) IC50

CC(C)(CO)[C@@H](O)C(=O)NCCNC(=O)CCc1ccccc1F [CXP18.6-017]
Schild regression analysis with pantothenate [1]: did not reveal a linear correlation
IC50 [2]: 0.022 µM
effect on gametocyte viability (pLDH activity) [3]: dose dependently reduced gametocyte viability
IC50 ([3]; Plasmodium falciparum): 100 nM
extent of inhibition of gametocyte viability [3]: to the same extent as the reference compound DHA
IC50 [4, 5]: 37 nM
IC50 [4, 6]: 36 nM

Cc1ccc(CCC(=O)NCCNC(=O)[C@H](O)C(C)(C)CO)cc1 [CXP18.6-026]
Schild regression analysis with pantothenate [1]: did not reveal a linear correlation
IC50 [2]: 0.16 µM
effect on gametocyte viability (pLDH activity) [3]: dose dependently reduced gametocyte viability
IC50 ([3]; Plasmodium falciparum): 170 nM
extent of inhibition of gametocyte viability [3]: to the same extent as the reference compound DHA
IC50 [4, 5]: 13 nM
IC50 [4, 6]: 13 nM

CC(C)(CO)[C@@H](O)C(=O)NCCNC(=O)CCc1ccccc1 [CXP18.6-006]
IC50 [2]: 0.12 µM
IC50 ([3]; Plasmodium falciparum): > 10000 nM
IC50 [4, 6]: 478 nM

CC(C)(CO)[C@@H](O)C(=O)NCCNC(=O)CCc1cccnc1 [CXP18.6-052]
Schild regression analysis with pantothenate [1]: competitive antagonism
IC50 [2]: 0.008 µM
effect on gametocyte viability (pLDH activity) [3]: dose dependently reduced gametocyte viability
maximum inhibition of gametocyte viability ([3]; Plasmodium falciparum, 72 h): ~50%
IC50 [4, 5]: 1970 nM
